According to patent publication US20180037923A1, “SELECTIVE DETECTION OF LACTIC ACID AND/OR ACETIC ACID BACTERIA OR OF FUNGI” (priority 2015, published 2018):
Values joined by “and” are separate entries in the source; they are usually repeats but may differ in a detail not shown here. Identical values can stand only once.

How the values were obtained:
Sacch. Diastaticus IFBM = experiment: Agar plate count after contact with antifungal; format: cell-based, Saccharomyces diastaticus; conditions: 400 mg/L; count at contact time 0 h 2.10^5 CFU/mL
Text: (§1) The word “bactericide” refers to a treatment having the effect of reducing a bacterial population by at least three decimal logarithms of colony forming units/ml on an agar plate count of a sample after treatment.
(§2) The toxicity results on yeasts and on bacteria are presented in the table below displaying the duration of exposure of the fungal flora to molecule A1 and the associated fluorescence measurement: yeasts lysis after exposure to the antifungal was confirmed by microscopic examination and methylene blue staining.
(§3) The words “contact time” refer to below, the time of exposure of the microorganisms to the fungicidal product, here molecule A1.
(§4) Below: “No CFU” is the abbreviation for “No Colony forming unit on agar plate count”.
(§5) The toxicity results on yeasts and on bacteria are presented in the table below displaying the duration of exposure of the fungal flora to the molecule A2 and are obtained by enumeration on MRS agar media.

G. oxydans DSM 7145 = experiment: Agar plate count after contact with antifungal; format: cell-based, Gluconobacter oxydans
Text: as §1, §2, §3, §4, §5

[1] = test system: Saccharomyces diastaticus; experiment: Atp bioluminescence, simplified protocol, with plate count; conditions: Treated (4 h)
[2] = test system: lactic acid bacteria and acetic acid bacteria; experiment: Bactericidal action on the bacterial flora (conclusion from agar plate counts); format: cell-based; conditions: bactericide = reduction by at least three decimal logarithms of CFU/ml
Text: as §1, §2, §5

[3] = test system: Oenococcus oeni DSM 20252; experiment: Agar plate count after contact with antifungal; format: cell-based
Text: as §1, §2, §3, §4, §5

[4] = test system: Acetobacter aceti DSM 3508; experiment: Agar plate count after contact with antifungal; format: cell-based; conditions: count at contact time 0 h 2.9.10^7 CFU/mL
Text: as §1, §2, §3, §4, §5

[5] = test system: Zyggosaccharomyces bailii; experiment: Agar plate count after contact with antifungal; format: cell-based; conditions: 400 mg/L; count at contact time 0 h 3.10^5 CFU/mL
Text: as §1, §2, §3, §4, §5

Pedicoccus damnosus IFBM = experiment: Agar plate count after contact with antifungal; format: cell-based
Text: as §1, §2, §3, §4, §5

[6] = test system: Lactobacillus parabuchneri DSM 5708; experiment: Agar plate count after contact with antifungal; format: cell-based; conditions: count at contact time 0 h 1.4.10^6 CFU/mL
Text: as §1, §2, §3, §4, §5

[7] = test system: Brettanomyces bruxellensis Wyeast labs; experiment: Agar plate count after contact with antifungal; format: cell-based
Text: as §1, §2, §3, §4, §5

[8] = test system: Lactobacillus lindneri DSM 20690; experiment: Agar plate count after contact with antifungal; format: cell-based
Text: as §1, §2, §3, §4, §5

Dekkera anomala IFBM = experiment: Agar plate count after contact with antifungal; format: cell-based; conditions: 400 mg/L; count at contact time 0 h 1.10^5 CFU/mL
Text: as §1, §2, §3, §4, §5

[9] = test system: Lactobacillus brevis IFBM; experiment: Agar plate count after contact with antifungal; format: cell-based; conditions: count at contact time 0 h 7.10^5 CFU/mL
Text: as §1, §2, §3, §4, §5

[10] = test system: Lactobacillus paracasei IFBM; experiment: Agar plate count after contact with antifungal; format: cell-based; conditions: count at contact time 0 h 1.4.10^7 CFU/mL
Text: as §1, §2, §3, §4, §5

[11] = test system: Sacch. Cerevisae DSM 70449; experiment: Agar plate count after contact with antifungal; format: cell-based, Saccharomyces cerevisae; conditions: 400 mg/L; count at contact time 0 h 8.10^4 CFU/mL
Text: as §1, §2, §3, §4, §5

[12] = test system: Sacch. Cerevisae Saflager S23; experiment: Agar plate count after contact with antifungal; format: cell-based, Saccharomyces cerevisae; conditions: 400 mg/L; count at contact time 0 h 9.10^4 CFU/mL
Text: as §1, §2, §3, §4, §5

Oenococcus oeni DSM = experiment: Atpmetry check, initial protocol (Filtravette), with plate count; format: cell-based; conditions: 4 h contact time; without antifungal 0.9.10^7 CFU/500 μL
Procedure: (§6) For the molecule A1, an Atpmetry check of the fungal flora destruction and of the antifungal treatment harmlesness on the lactic acid or acetic acid bacterial flora has been done for a contact time of 4 hours or 8 hours and on different strains.
(§7) Strains tested: Oenococcus oeni DSM, Gluconobacter oxydans, B. bruxellensis, S. cerevisae, prepared in MRS broth.
(§8) Materials: Lum-1 ATP meter (model analogous to Profile-1 bioluminometer from New Horizons Diagnostics) was tested with Biothema Ab bioluminescence reagents, namely reagents “ATP Eliminating Buffer”, “Extractant B/S”, “ATP Reagent HS” and 0.45 μm porosity Filtravette™ cuvette-filters from New Horizons Diagnostics.
(§9) Addition of 500 μL of the suspension without fungicidal treatment or with fungicidal treatment inside a 10 mL plastic syringe containing at its end a cell concentrator incorporating a Filtravette™.
(§10) Filtration through the Filtravette™
(§11) Filtravette™ deposit on a Filtravette™ holder with a blotter pad below
(§12) Addition of 50 μL of “ATP Eliminating Buffer” inside the Filtravette
(§13) 10 minutes incubation at room temperature
(§14) Flushing of the “ATP Eliminating Buffer” Reagent through the blotter pad by positive pressure
(§15) Homogenization and 1 minute incubation.
(§16) Addition of 240 μL of “ATP Reagent HS”. Homogenization.
(§17) Insertion of the Filtravette into the Lum-1 drawer and closure of the drawer.

Gluconobacter oxydans = experiment: as above; format: cell-based
Procedure: as §6, §7, §8, §9, §10, §11, §12, §13, §14, §15, §16, §17

[13] = test system: Brettanomyces bruxellensis; experiment: as above; format: cell-based; conditions: 4 h contact time; without antifungal 2.8.10^6 CFU/500 μL
Procedure: as §6, §7, §8, §9, §10, §11, §12, §13, §14, §15, §16, §17

[14] = test system: Saccharomyces cerevisae DSM; experiment: as above; format: cell-based; conditions: Antifungal 4 h contact time
Procedure: as §6, §7, §8, §9, §10, §11, §12, §13, §14, §15, §16, §17

[15] = 200 mg/L, count at contact time 0 h 6.10^6 CFU/mL

Q: How did the “Agar plate count contact time 4 h” value (Sacch. Diastaticus IFBM) turn out when `C[C@@H]1[C@H](O)[C@@H](C)/C=C/C=C/C=C/C=C/C=C/C=C/C=C/[C@H](O[C@@H]2O[C@H](C)[C@@H](O)[C@H](N)[C@@H]2O)C[C@@H]2O[C@](O)(C[C@@H](O)C[C@@H](O)[C@H](O)CC[C@@H](O)C[C@@H](O)CC(=O)O[C@H]1C)C[C@H](O)[C@H]2C(=O)O` [Molecule A1, Amphotericin B] was run?
A: Its value is “No CFU”.

Q: And the “Agar plate count contact time 4 h” value (G. oxydans DSM 7145; 200 mg/L, count at contact time 0 h 8.10^8 CFU/mL)?
A: Its value is 1.10^9 CFU/mL.

Q: And the “Agar plate count contact time 4 h” value (G. oxydans DSM 7145; 400 mg/L, count at contact time 0 h 8.10^7 CFU/mL)?
A: The value was 9.10^7 CFU/mL.

Q: And the “total bioluminescence in duplicate with lysis agent” value ([1]; start 7.5.10^1 CFU/100 μL, untreated + extractant 1934 and 1241 RLU)?
A: The value was 482 RLU.

Q: What about the “luminescent backgroud noise in duplicate without lysis agent after luciferin/luciferase addition” value ([1]; start 7.5.10^1 CFU/100 μL, untreated background 34 and 34 RLU) of the same compound?
A: Its value is 457 RLU and 436 RLU.

Q: And the “total bioluminescence in duplicate with lysis agent” value ([1]; start 7.5.10^2 CFU/100 μL, untreated + extractant 16239 and 16707 RLU)?
A: The value was 4393 RLU.

Q: And the “luminescent backgroud noise in duplicate without lysis agent after luciferin/luciferase addition” value ([1]; start 7.5.10^2 CFU/100 μL, untreated background 211 and 223 RLU)?
A: The value was 3803 RLU and 3837 RLU.

Q: What about the Concentration after treatment ([1]; untreated 7.5.10^1 CFU/100 μL) of the same compound?
A: The Concentration after treatment was 0 CFU/100 μL.

Q: And the Concentration after treatment ([1]; untreated 7.5.10^2 CFU/100 μL)?
A: Its Concentration after treatment is 0 CFU/100 μL.

Q: And the “Bactericidal action on lactic acid and acetic acid flora” value ([2]; doses of 200 mg/liter)?
A: The value was “non-bactericidal for lactic acid bacteria and acetic acid bacteria”.

Q: What about the “Bactericidal action on lactic acid and acetic acid flora” value ([2]; doses of 400 mg/liter) of the same compound?
A: Its value is “non-bactericidal”.

Q: And the “Agar plate count contact time 4 h” value ([3]; 200 mg/L, count at contact time 0 h 4.10^9 CFU/mL)?
A: The value was 6.10^9 CFU/mL.

Q: What about the “Agar plate count contact time 4 h” value ([3]; 400 mg/L, count at contact time 0 h 4.10^7 CFU/mL) of the same compound?
A: The value was 5.10^7 CFU/mL.

Q: And the “Agar plate count contact time 4 h” value ([4]; 200 mg/L)?
A: The value was 8.10^8 CFU/mL.

Q: What about the “Agar plate count contact time 4 h” value ([4]; 400 mg/L) of the same compound?
A: The value was 3.10^7 CFU/mL.

Q: And the “Agar plate count contact time 4 h” value [5]?
A: The value was “No CFU”.

Q: And the “Agar plate count contact time 4 h” value (Pedicoccus damnosus IFBM; 200 mg/L, count at contact time 0 h 7.2.10^5 CFU/mL)?
A: The value was 8.10^5 CFU/mL.

Q: And the “Agar plate count contact time 4 h” value (Pedicoccus damnosus IFBM; 400 mg/L, count at contact time 0 h 1.1.10^5 CFU/mL)?
A: Its value is 2.10^7 CFU/mL.

Q: What about the “Agar plate count contact time 4 h” value ([6]; 200 mg/L) of the same compound?
A: The value was 1.10^6 CFU/mL.

Q: And the “Agar plate count contact time 4 h” value ([6]; 400 mg/L)?
A: The value was 3.10^5 CFU/mL.

Q: And the “Agar plate count contact time 4 h” value [7, 15]?
A: The value was “No CFU”.

Q: And the “Agar plate count contact time 4 h” value ([7]; 400 mg/L, count at contact time 0 h 3.10^5 CFU/mL)?
A: The value was “No CFU”.

Q: What about the “Agar plate count contact time 4 h” value [8, 15] of the same compound?
A: The value was 2.10^6 CFU/mL.

Q: And the “Agar plate count contact time 4 h” value ([8]; 400 mg/L, count at contact time 0 h 6.10^5 CFU/mL)?
A: Its value is 7.10^4 CFU/mL.

Q: What about the “Agar plate count contact time 4 h” value (Dekkera anomala IFBM) of the same compound?
A: The value was “No CFU”.

Q: What about the “Agar plate count contact time 4 h” value ([9]; 200 mg/L) of the same compound?
A: The value was 2.9.10^5 CFU/mL.

Q: What about the “Agar plate count contact time 4 h” value ([9]; 400 mg/L) of the same compound?
A: Its value is 3.10^5 CFU/mL.

Q: What about the “Agar plate count contact time 4 h” value ([10]; 200 mg/L) of the same compound?
A: The value was 2.4.10^7 CFU/mL.

Q: What about the “Agar plate count contact time 4 h” value ([10]; 400 mg/L) of the same compound?
A: The value was 1.10^7 CFU/mL.

Q: What about the “Agar plate count contact time 4 h” value [11] of the same compound?
A: The value was “No CFU”.

Q: What about the “Agar plate count contact time 4 h” value [12] of the same compound?
A: Its value is “No CFU”.

Q: And the “Plate count with antifungal” value (Oenococcus oeni DSM)?
A: Its value is 4.10^6 CFU/500 μL.

Q: And the “Atp bioluminescence with antifungal treatment” value (“Atp bioluminescence” below) (Gluconobacter oxydans; MRS broth, 500 μL analysed, 1.10^7 CFU/500 μL before treatment, 115966 RLU)?
A: The value was 77057 RLU.

Q: And the “Plate count with antifungal” value (Gluconobacter oxydans; before treatment 1.10^7 CFU/500 μL)?
A: Its value is 4.1.10^6 CFU/500 μL.

Q: What about the “Plate count with antifungal” value [13] of the same compound?
A: The value was 0 CFU/500 μL.

Q: What about the “Agar plate count with antifungal” value ([14]; start 5.10^2 CFU/500 μL) of the same compound?
A: Its value is “time no count on agar”.

Q: What about the “Atp bioluminescence” value ([14]; start 5.10^2 CFU/500 μL, untreated 206949 and 149508 RLU) of the same compound?
A: The value was 642 RLU.

Q: What about the “Agar plate count with antifungal” value ([14]; start 5.10^3 CFU/500 μL) of the same compound?
A: The value was “time no count on agar”.

Q: What about the “Atp bioluminescence” value ([14]; start 5.10^3 CFU/500 μL, untreated >1000000 RLU) of the same compound?
A: Its value is 4665 RLU.
